Reference: patent US12558343B2, “Medical use of icaritin” (Lunan Pharmaceutical Group Corporation, priority 2020, dated 2026)
Where two headings read alike, the source gives them in different places. Marks after values point to notes of the source that are not given here.

How the values were obtained:
[1] = system: gastrointestinal bleeding caused by aspirin; assay: Gastrointestinal bleeding caused by aspirin in rats, gastric mucosal bleeding; assay type: in vivo, SD rats; conditions: icaritin 18 mg/kg i.g. with aspirin 500 mg/kg i.g., 24 h
Protocol: After 24 h of the intragastric administration, the rats were anesthetized, sacrificed, and dissected. Bleeding, erosion and ulcers of the gastric mucosa surface of the rats were observed.

[2] = mouse, in vivo
Protocol: After the grouping, the mice in the normal group and the model group were intragastrically administrated with 10 ml/kg of an icaritin solvent which was prepared by adding 12 g of hypromellose E5 and 0.1 g of sodium lauryl sulfate into 1 L of water. […] One hour after the last pre-administration, the mice in the model group and each administration group were injected with 150 U/kg of a heparin sodium injection through a tail vein to establish a model, and the mice in the normal group were injected with 10 ml/kg of a sodium chloride injection through a tail vein.
After the bleeding time was detected, the mice were anesthetized with sodium pentobarbital, blood was collected from an abdominal cardinal vein, and indicators of blood routine examination and four coagulation indicators (prothrombin time, thromboplastin time, thrombin time, and fibrinogen) were detected.

[3] = system: IX-knockout mice with hemophilia; assay: Tail-cut bleeding time of coagulation factor IX-knockout mice with hemophilia; assay type: in vivo
Protocol: One hour after the last administration, the tails of the mice were cut and bleeding time of each mouse was measured.

[4] = system: platelets (activation induced by adenosine diphosphate); assay: Platelet activation induced by adenosine diphosphate, flow cytometry (CD62p/CD61), blood of dosed rats; assay type: in vivo, SD rats; conditions: for Activation rate of platelets activated by adenosine diphosphate, Basic value / Spontaneous activation rate: before administration; for Spontaneous activation rate: no adenosine diphosphate; for Activation-promoting rate: after vs basic value; for Activation rate of platelets activated by adenosine diphosphate, After administration: 20 min after last administration
Protocol: 0.5 mL of blood was collected from the orbit of the rat and 3.8% sodium citrate was added for anticoagulation (a ratio of blood to anticoagulant was 9:1) to prepare anticoagulated blood. 50 μL of anticoagulated blood was taken from each animal for determination of spontaneous platelet activation rate; and another 50 μL of anticoagulated blood was taken and 50 μL of adenosine diphosphate with a final concentration of 10 μmol was added for activation. 1.0-1.5 μL of each of CD62pPE/Cy7 and CD61PE was added to double-label the 2 anticoagulated blood, CD61 was used to label all the platelets and CD62p was used to label the activated platelets. […] The rats were double-labeled with G2a-PE/Cy7 and G-PE […] as a control. Each tube containing the treated blood was incubated at 4° C. in a dark place for 20 min; and 0.5 mL of 4% paraformaldehyde was added to fix for 10 min. 50 μL of the fixed blood sample was taken and diluted with 1 mL of a diluent, and the diluted sample was analyzed on a flow cytometer. Platelet populations were delineated in a CD61PE/Side Angle Light Scattering (SSC) two-parameter scatterplot, 5,000 platelets were counted, the number of CD61 and CD62p-positive cells was further counted in a CD61/CD62p scatterplot, and a percentage of a positive expression rate of CD62p in an expression rate of CD61 reflected a platelet activation rate (%).
Twenty-four rats were taken and divided into 3 groups with 8 rats in each group. […] 1.0 mL of blood was collected from the orbits before administration and 20 min after a last administration, wherein 0.5 mL was used for a blood routine examination and 0.5 mL was used to prepare anticoagulated blood. The blood was treated and analyzed on the flow cytometer according to the detection method of platelet activation by flow cytometry. An activation rate of platelets activated by adenosine diphosphate (basic value) before administration and an activation rate of platelets activated by adenosine diphosphate after administration were compared. At the same time, 50 μL of anticoagulated blood was taken from the rats before administration, adenosine diphosphate was not added, and a spontaneous activation rate of the anticoagulated blood of animals was measured using the same method. The animals were fasted for 16-24 h before each blood sampling.

[5] = system: prolonged bleeding time caused by aspirin; assay: Tail-cut bleeding time in mice, prolonged by aspirin; assay type: in vivo, ICR mice; conditions: aspirin 20 mg/kg i.g.
Protocol: According to the body weight on the last day of the quarantine, the male and female animals were divided into six groups by a simplified random method, namely, a normal group (C), a model group (V), icaritin low-, medium- and high-dose groups (2, 6, and 18 mg/kg, L, M, H) and a positive control drug group (200 mg/kg of etamsylate, P).
After 15 min of the modeling, the tails of the mice were cut and bleeding time of each mouse was measured.

[6] = system: activated partial thromboplastin time; assay: Activated partial thromboplastin time, rabbit model of acquired hemophilia A; assay type: in vivo, New Zealand rabbits
Protocol: Twenty-four healthy New Zealand rabbits were selected and randomly divided into a control group, a model group and a treatment group with 8 rabbits in each group. Each rabbit weighed about 1.5 kg. The rabbits were fed in separate stainless steel cages at a room temperature of 18-25° C. The rabbits in each group were given a normal diet without any special treatment. One week later, the rabbit was anesthetized with 2% pentobarbital (1.5 ml/kg) via the marginal ear vein, and the left femoral vein of the rabbit was isolated and exposed for injection. The plasma of patients with acquired hemophilia A (confirmed by the Department of Hematology, Linyi People's Hospital) was intravenously injected into the rabbits in the model group and the treatment group at 2 ml/kg of rabbit body weight. The rabbits in the treatment group were immediately intragastrically administrated with icaritin at 18 mg/kg after the injection was completed and the rabbits in the model group were intragastrically administrated with a same amount of normal saline. The rabbits in the control group were intravenously injected with a same amount of normal human plasma. Blood was drawn from the marginal ear vein 30 min before and 30 min, 60 min, 90 min, and 120 min after the injection of the plasma separately, 3.8% of sodium citrate (1:9) was added for anticoagulation, and the anticoagulated blood was centrifuged at 3,000 r/m to separate plasma.
Referring to the instructions of the kit, 0.1 mL of rabbit plasma was taken, 0.1 mL of a thromboplastin time reagent was added, the materials were mixed, an obtained mixture was subjected to warm bath at 37° C. for 2 min, 0.1 mL of 0.025 M calcium chloride pre-warmed at 37° C. was added, the materials were uniformly mixed, a value of thromboplastin time at each time point was measured by immediately starting a stopwatch, the thromboplastin time at each time point was repeatedly detected twice, and an average value was obtained.

COc1ccc(-c2oc3c(CC=C(C)C)c(O)cc(O)c3c(=O)c2O)cc1 [Icaritin]
Bleeding rate ([1]; model group 66.7): 16.7^## %
Number of bleeding animals ([1]; of 12 rats): 2
Fibrinogen ([2]; 2 mg/kg): 1.83 ± 0.22 g/L
Prothrombin time ([2]; 2 mg/kg): 10.12 ± 1.34 s
Thrombin time ([2]; 2 mg/kg): 22.23 ± 2.01 s
Thromboplastin time ([2]; 2 mg/kg): 25.19 ± 1.90 s
Fibrinogen ([2]; 6 mg/kg): 1.82 ± 0.56 g/L
Prothrombin time ([2]; 6 mg/kg): 11.23 ± 1.45 s
Thrombin time ([2]; 6 mg/kg): 24.09 ± 1.99 s
Thromboplastin time ([2]; 6 mg/kg): 25.09 ± 2.22 s
Fibrinogen ([2]; 18 mg/kg): 2.01 ± 0.52 g/L
Prothrombin time ([2]; 18 mg/kg): 9.98 ± 1.23 s
Thrombin time ([2]; 18 mg/kg): 25.54 ± 1.78 s
Thromboplastin time ([2]; 18 mg/kg): 24.55 ± 2.66 s
Bleeding time ([3]; group B, 3 mg/kg i.g. once a day 11 days, 1 h after last administration, control 37.8 ± 12.4): 25.5 ± 8.9 min
Bleeding time ([3]; group C, 6 mg/kg i.g. once a day 11 days): 20.4 ± 6.9 min
Bleeding time ([3]; group D, 18 mg/kg i.g. once a day 11 days): 16.5 ± 9.7 min
Activation rate of platelets activated by adenosine diphosphate, Basic value ([4]; 3 mg/kg group): 44.02 ± 11.21%
Spontaneous activation rate ([4]; 3 mg/kg group): 0.60 ± 0.11%
Activation-promoting rate ([4]; 3 mg/kg i.g. 3 days): 32.12%
Activation rate of platelets activated by adenosine diphosphate, After administration ([4]; 3 mg/kg i.g. once a day 3 days): 58.16 ± 13.41%
Activation rate of platelets activated by adenosine diphosphate, Basic value ([4]; 6 mg/kg group): 47.19 ± 13.12%
Spontaneous activation rate ([4]; 6 mg/kg group): 0.59 ± 0.20%
Activation-promoting rate ([4]; 6 mg/kg i.g. 3 days): 38.22%
Activation rate of platelets activated by adenosine diphosphate, After administration ([4]; 6 mg/kg i.g. once a day 3 days): 65.23 ± 16.78%
Activation rate of platelets activated by adenosine diphosphate, Basic value ([4]; 18 mg/kg group): 50.34 ± 19.22%
Spontaneous activation rate ([4]; 18 mg/kg group): 0.61 ± 0.14%
Activation-promoting rate ([4]; 18 mg/kg i.g. 3 days): 55.84%
Activation rate of platelets activated by adenosine diphosphate, After administration ([4]; 18 mg/kg i.g. once a day 3 days): 78.45 ± 20.22%
Bleeding time ([5]; group H, 18 mg/kg i.g. once a day 5 days): 16.7 ± 7.2^$ $ & min
Bleeding time ([5]; group L, 2 mg/kg i.g. once a day 5 days, tail cut 15 min after modeling): 28.4 ± 9.8^$ min
Bleeding time ([5]; group M, 6 mg/kg i.g. once a day 5 days): 24.7 ± 7.3^$ min
Thromboplastin time ([6]; icaritin 18 mg/kg i.g. after plasma injection, 30 min after injection): 40.4 ± 3.23^$
Thromboplastin time ([6]; icaritin 18 mg/kg i.g., 60 min after injection): 39.9 ± 4.09$ $
Thromboplastin time ([6]; icaritin 18 mg/kg i.g., 90 min after injection): 40.4 ± 5.67$ $
Thromboplastin time ([6]; icaritin 18 mg/kg i.g., 120 min after injection): 41.3 ± 6.21^$ $
Thromboplastin time ([6]; treatment group, 30 min before injection of patient plasma (before icaritin)): 36.8 ± 4.12
